Among the data in US20040138488A1, “Benzene-1 2-diol mannich bases ligands polymers and method of selective metal ions removal” (priority 2001, published 2004) are melting point values, retold here.

SMILES strings stand for the structures.

Turning to `CCN(CCN(CC)Cc1cccc(OC)c1O)Cc1cccc(OC)c1O` [Example 13, 6,6′-Dimethoxy-2,2′-[ethylenebis(ethyliminomethylene)]diphenol], the melting point fell in the range of 71 to 72 °C. Compound `COc1cccc(CN(C)CCCN(C)Cc2cccc(OC)c2O)c1O` [Example 14, 6,6′-Dimethoxy-2,2′-[propane-1,3-diylbis(methyliminomethylene)]diphenol] had a melting point of 78 to 79 °C. As for `COc1cccc(CN(C)CCN(C)Cc2cccc(OC)c2O)c1O` [Example 12, 6,6′-Dimethoxy-2,2′-[ethylenebis(methyliminomethylene)]diphenol], the melting point is 115 to 116 °C. In turn, `COc1cccc(CN2CCN(Cc3cccc(OC)c3O)CC2)c1O` [Example 15, 6,6′-Dimethoxy-2,2′-(piperazine-1,4-diylbismethylene)diphenol] yielded a melting point of 197 to 198 °C.

For the compound `Oc1cccc(CN2CCN(Cc3cccc(O)c3O)CC2)c1O` [Example 20, 3,3′-(Piperazine-1,4-diylbismethylene)di(catechol)], the melting point is 210 °C (dec.). Regarding `CN(CCCN(C)Cc1cccc(O)c1O)Cc1cccc(O)c1O` [Example 19, 3,3′-[Propane-1,3-diylbis(methyliminomethylene)]di(catechol)], the melting point is 130 °C (dec.).

The melting point is the temperature of the solid-liquid transition.
